Laboratory results reported in US7999126B2, “Palladium(0)-dibenzylidene acetone complexes” (priority 2007, dated 2011).

Assay: Solubility Test: CHCl3-insoluble residue of the product
Format: physicochemical
Settings: 1.00 g product in 150 ml chloroform
Method: 1.00 g of the product are dissolved in 150 ml of chloroform and stirred at room temperature for 30 minutes. The solution is then aspirated through a membrane filter. The filter is washed with 30 ml of water and 30 ml of acetone and subsequently dried over night at 45° C. in vacuo.
1.00 g of the product were dissolved in 150 ml of chloroform and stirred for 30 minutes at room temperature. The solution was aspirated through a membrane filter. The filter was washed with 30 ml of water and 30 ml of acetone and subsequently dried over night at 45° C. in vacuo.
1.00 g of the product were dissolved in 150 ml of chloroform and stirred for 30 minutes at room temperature. The solution was aspirated through a membrane filter. The filter was washed with 30 ml of water and 30 ml of acetone, and the filter was subsequently dried over night at 45° C. in vacuo.

CHCl3-insoluble ingredients (room temperature): 0%
residue (Solubility Test) (stirred 30 minutes at room temperature, membrane filter, filter dried): 0%
Compound: O=C(/C=C/c1ccccc1)/C=C/c1ccccc1.O=C(/C=C/c1ccccc1)/C=C/c1ccccc1.[Pd] [Experiment 1, Pd(dba)2]
